Ends that are not written are not given here.
Columns and labels:
[1] = tested on: ischemic retinal lesion; settings: cited from earlier work
Excerpt: (§1) VIP, the peptide with the closest structural similarity ...

[2] = parameters: species or system mice; settings: mouse, in vivo
Experimental: Mice were anesthetized with urethane and administered PACAP1-38 as an eye drop (1 × 10^6 cpm/eye in benzalkonium-chloride). Serum, whole brain, and eyes were collected 10 or 60 min after the eye drops were administered. The whole brain and eyes were washed in ice-cold PBS. Blood was allowed to clot, centrifuged at 5400× g for 10 min, and 50 μL of the serum obtained was added to 200 μL of 1% BSA in Lactated Ringers' (LR) solution. This mixture was added to 250 μL of 30% trichloroacetic acid, vortexed, and centrifuged for 10 min at 5400× g. Brains and eyes were homogenized separately in 0.5 mL of 1% BSA-LR with a bead beater for 30 s at 4800 rpm × 2 on ice. Samples were transferred to a microfuge tube and centrifuged at 10,000× g for 20 min and a portion of the resulting supernatant added to an equal volume of 30% trichloroacetic acid, vortexed, and centrifuged at 5400× g for 10 min. Resulting supernatant (S) and precipitate (P) from the serum, whole brain, and eyes were counted separately and the percent of radioactivity which could be precipitated with acid (% […]) was calculated using: % […] = 100(P)/(S + P). To correct for any degradation that might have occurred during the processing for acid precipitation, we added 125I-PACAP1-38 to non-radioactive arterial whole blood, whole brain, and eyes, and processed as above. Biological samples were corrected for degradation during processing by dividing their values by the processing control values.

[3] = tested on: retinal layers in BCCAO-induced retinal hypoperfusion; test: Retina morphology and morphometry after permanent bilateral common carotid artery occlusion (BCCAO); type: in vivo, Wistar rats
Experimental: (§2) Wistar rats (n = 20:n = 12 for histological analysis, n = 8 for immunohistochemical analysis) weighing 250–300 g were subjected to permanent ligation of both common carotid arteries. The animals were bred and kept in the Animal Facility of the University of Pecs, Medical School. They were fed and watered ad libitum, under light/dark cycles of 12/12 h. All procedures were in accordance with institutional guidelines (ethical permission No: BA02/2000-31/2011, University of Pecs). Under isoflurane anesthesia, both common carotid arteries were exposed through a midline cervical incision and ligated with a 3-0 filament. Directly after the operation within 1 min, the right eye was treated with PACAP1-38 eye drops (1 µg/drop) (PACAP was synthesized at the Department of Medical Chemistry, University of Szeged, Szeged, Hungary). […] The left eye served as a control, treated only with the vehicle. A group of animals served as the sham-operated group that underwent anesthesia and all steps of the surgical procedure except ligation of the carotid arteries. Rats were treated twice a day with one drop, for 5 consecutive days.
Rats (n = 3 sham, n = 3 sham + PACAP1-38, n = 9 BCCAO, n = 9 BCCAO + PACAP1-38 retinas) were sacrificed with an overdose of anesthetic 2 weeks after BCCAO and eyes were processed for histological analysis. Histological analysis was performed as described previously. Briefly, removed retinas were dissected in phosphate buffered saline (PBS), fixed in 4% paraformaldehyde dissolved in 0.1 M phosphate buffer (PB), embedded in Durcupan ACM resin, and two-µm-thick sections were stained with toluidine blue (Sigma, Budapest, Hungary). Four tissue blocks obtained from at least three rats were prepared and central retinal areas within 1 mm from the optic nerve were used (n = 5 measurements from one tissue block). The following parameters were measured on digital photographs taken with a Nikon Eclipse camera using the Spot program: cross-section from the outer limiting membrane (OLM) to the inner limiting membrane (ILM), and width of all retinal layers (outer nuclear layer-ONL, outer plexiform layer-OPL, inner nuclear layer-INL, inner plexiform layer-IPL). We also counted the number of cells in the ganglion cell layer (GCL). Results are presented as mean ± SEM. Statistical comparisons were made using the two-way ANOVA followed by Fischer’s post hoc analysis.

[4] = tested on: LH surge; settings: intracerebroventricular administration; cited from earlier work
Excerpt: (§3) Our present study, together with the previous study on PACAP1-27, highlights the potential therapeutic use of PACAP in the form of eye drops to treat retinal diseases. The novelty of our present results is that PACAP1-38, the most commonly occurring form of the peptide, exerts a retinoprotective effect similarly to PACAP1-27. Although most actions of PACAP1-27 and PACAP1-38 are similar or the same, several differences are also known. In most studies, PACAP1-27 binds to the receptors with less affinity, leading to less well-pronounced effects at the same concentration as PACAP1-38 [6, 36]. T ...

[5] = tested on: retinoblastoma cells; settings: high concentrations; cited from earlier work
Excerpt: as §3

[6] = tested on: dipeptidyl-peptidase; settings: cited from earlier work
Excerpt: as §3

[7] = tested on: Müller glial cells (GFAP); test: GFAP immunohistochemistry of Müller glial cell activation after BCCAO; type: in vivo, Wistar rats; settings: BCCAO rats, eye drops 1 µg/drop twice a day for 5 days, 2 weeks after ischemia, n = 4; p < 0.05
Experimental: as §2, with “Rats were treated twice a day with one drop, for 5 consecutive days.” left out
For immunohistochemical analysis, 2 weeks after the induction of ischemia, animals (n = 4 sham, n = 4 sham + PACAP1-38 and n = 4 BCCAO; n = 4 BCCAO + PACAP1-38 retinas) were sacrificed with 120 mg/kg pentobarbital (Nembutal, Sanofi-Phylaxia, Budapest, Hungary). […] Digital photographs were taken with a Nikon Eclipse Ci fluorescence microscope. […]

[8] = mouse, in vivo
[9] = tested on: monosodium glutamate-induced excitotoxic lesions of the retina; settings: intravitreal injection; cited from earlier work
Excerpt: as §1

[10] = tested on: ocular barriers and retinal lesion; settings: eye drops dissolved in benzalkonium-chloride; cited from earlier work
Excerpt: The present results are in accordance with our recent observations with PACAP1-27 eye drops.

**Q.** With “VIP: the peptide with the closest structural similarity to PACAP” as the substance, how does the “concentration needed for the same degree of protection as PACAP in ischemic retinopathy” value [1] read?
**A.** Its value is “ten times higher”.

**Q.** With secretin as the substance, how does the “protective effects in ischemic retinal lesion” value [1] read?
**A.** The value was “do not exert protective effects”.

**Q.** What does the source list for “pituitary adenylate cyclase activating polypeptide [PACAP1-38]”?
**A.** Percentage of acid precipitation, Whole Brain, 10 min [2]: 104.71 ± 17.72%; Percentage of acid precipitation, Whole Brain, 60 min [2]: 75.09 ± 41.13%; intact peptide in the eye [2]: about 50%; OLM–ILM (outer limiting membrane–inner limiting membrane) distance, reduction compared to sham controls ([3]; BCCAO rats, eye drops 1 µg/drop in 0.005% benzalkonium-chloride, twice a day for 5 days, 2 weeks after ligation, BCCAO vehicle eye 49.7%, p < 0.001, n = 9 retinas): 40.6%; outer nuclear layer (ONL) thickness, reduction ([3]; as E1, BCCAO vehicle eye 36.5%, no statistically significant attenuation): 37.7%; inner nuclear layer (INL) thickness, reduction ([3]; as E1, BCCAO vehicle eye 38.5%, p < 0.001): 30.5%; number of cells in the ganglion cell layer (GCL), decrease ([3]; as E1, BCCAO vehicle eye 52.4%, p < 0.05): 25.9%; outer plexiform layer (OPL) thickness, reduction ([3]; as E1, BCCAO vehicle eye 53.0%, no statistically significant attenuation): 48.2%; inner plexiform layer (IPL) thickness, reduction ([3]; as E1, BCCAO vehicle eye 64.8%, p < 0.05): 38.2%; effect on retinal layers in sham animals ([3]; sham-operated rats, eye drops 1 µg/drop in benzalkonium, n = 3): did not result in changes in any of the retinal layers; effect on LH surge [4]: inhibition of the LH surge; viability of retinoblastoma cells [5]: reduced viability; metabolic stability in the serum against dipeptidyl-peptidase [6]: rapidly degraded in the serum by dipeptidyl-peptidase; GFAP upregulation in Müller glial cells [7]: attenuated the GFAP upregulation; clearance into the blood stream (serum) [8]: increased clearance into the blood stream after 120 min; detection of radioactivity after ocular application [8]: present in the eye, the brain, and the serum five minutes after application; level in the whole brain, time course [8]: detected after 5 min in the whole brain (Figure 4D) and levels remained stable throughout the observation time; transport across the cornea, time course [8]: increasing transport across the cornea over the time course of the study; uptake in the retina, time course [8]: increased to 30 min and plateaued; retinoprotection in monosodium glutamate-induced excitotoxic lesions [9]: same degree of retinoprotection

**Q.** Which “protective effects in ischemic retinal lesion” value [1] does the source give for glucagon here?
**A.** Its value is “do not exert protective effects”.

**Q.** With “PACAP6-27: PACAP receptor antagonist (FTDSYSRYRKQMAVKKYLAAVL; ends and bridges not checked; UniProt P18509 137-158, looked up, fragment)” as the substance, how does the “retinoprotection in monosodium glutamate-induced excitotoxic lesions” value (“retinoprotection” below) [9] read?
**A.** Its value is “further increased the excitotoxic damage”.

**Q.** Which “Percentage of acid precipitation, Eye, 10 min” value [2] does the source give for “125I-PACAP1-38: PACAP1-38 labeled with 125I using the lactoperoxidase method” here?
**A.** Its value is 52.73 ± 2.35%.

**Q.** And the “Percentage of acid precipitation, Eye, 60 min” value [2]?
**A.** The value was 48.24 ± 3.39%.

**Q.** And the “Percentage of acid precipitation, Serum, 10 min” value [2]?
**A.** The value was 25.57 ± 25.57%.

**Q.** What about the “Percentage of acid precipitation, Serum, 60 min” value [2] of the same substance?
**A.** Its value is 0 ± 0%.

**Q.** What about the “Percentage of acid precipitation, Whole Brain, 10 min” value [2] of the same substance?
**A.** Its value is 104.71 ± 17.72%.

**Q.** What about the “Percentage of acid precipitation, Whole Brain, 60 min” value [2] of the same substance?
**A.** Its value is 75.09 ± 41.13%.

**Q.** And the “degradation in the serum after ocular administration” value [2]?
**A.** The value was “almost completely degraded by 5 min”.

**Q.** With “PACAP1-27: the shorter biologically active form of PACAP [reference compound]” as the substance, how does the “passage through ocular barriers and effect on retinal lesion” value [10] read?
**A.** Its value is “passes through the mouse ocular barriers from the corneal surface to the retina, and ameliorates the retinal lesion”.

**Q.** And the “effect on LH surge” value [4]?
**A.** The value was “opposite reaction”.

**Q.** What about the “viability of retinoblastoma cells” value [5] of the same substance?
**A.** Its value is “negligible effects”.

**Q.** And the “metabolic stability in the serum against dipeptidyl-peptidase” value [6]?
**A.** Its value is “more stable due to the resistance against dipeptidyl-peptidase reaction”.

**Q.** What about the “retinoprotection” value [9] of the same substance?
**A.** The value was “same degree of retinoprotection”.

**Q.** With “PACAP6-38: PACAP receptor antagonist (FTDSYSRYRKQMAVKKYLAAVLGKRYKQRVKNK; ends and bridges not checked; UniProt P18509 137-169, looked up, fragment)” as the substance, how does the “retinoprotection” value [9] read?
**A.** Its value is “further increased the excitotoxic damage”.

**Q.** For “pituitary adenylate cyclase activating polypeptide [PACAP]”, which “serum and brain levels in comparison to ocular levels” value [8] is on record?
**A.** Its value is “negligible in comparison to ocular levels”.
